“Also recorded” adds a separate entry of the source.
Legend:
Format in all cases: cell-based
[1] = tested on: A549 human lung cancer cells; test: 72 hour MTT, A549 cells, single drugs and combinations; conditions: 72 hour MTT A549 cells, read-out: Compound 401 (% Inhibition)
Description: (§1) Cell Viability Determination: For 3-(4,5 dimethylthiazol-2-yl)-2,5-diphenyltetrazolium (MTT) (Sigma-Aldrich, St. Louis, Mo.) analysis, cells were plated in 96 well plates at 10,000 cells per well. 24 hours after plating, compound was added to cells at indicated doses. […] following compound addition, MTT was added to each well (0.5 mg/ml, final concentration) and plates were incubated for an additional 2 hours at 37° C. Medium was then aspirated and the formazan product was solubilized in 100 μl of isopropyl alcohol. The absorbance of each well was measured at 570 nm using a microplate reader.
(§2) Paca2 human pancreatic cancer cells, A549 human lung cancer cells, and HepG2 human liver cancer cells (American Type Culture Collection) were cultured in Dulbecco's modified Eagle's medium containing 10% fetal bovine serum, 100 units/mL penicillin, 100 μg/mL streptomycin, and 2 mM L-glutamine. […] Erlotinib was from American Custom Chemicals (San Diego, Calif.). Gemcitabine was from Eli Lilly (Indianapolis, Ind.) in an aqueous 20 mM stock solution. Sorafenib was Mass.). Unless otherwise noted all compounds were solubilized in DMSO at 10 mM and aliquoted at −20° C. Exponentially growing Paca2 pancreatic cancer cells were seeded at 1,000 cells per well in 6-well plates and allowed to attach for 24 hours. Increasing concentrations of individual drugs and those in combination were then added to the media for another 24 hours. After 24 hours exposure, the drug was removed and fresh media was added for the next 10-14 days, allowing for colony formation. Cells were fixed and stained with GIEMSA (Gibco BRL). […] Results are an average of duplicate experiments. Alternatively, MTT assays were performed 72 hours post-treatment in A549 and HepG2 cells.

[2] = tested on: Stat3; test: Stat3-luciferase (Stat3-Luc) reporter assay, OSM-stimulated HeLa cells; conditions: HeLa cells
Description: Luciferase Reporter Assay: HeLa Cells were co-transfected with Stat3-luciferase (Stat3-Luc) reporter vector (Panomics, Fremont, Calif.) and Renilla luciferase (Promega, Madison, Wis.) using Lipofectamine 2000 as described by the manufacturer (Invitrogen). Following transfection, cells were maintained in medium containing 0.5% FBS for 24 hours. Cells were then treated with the indicated compound for 30 minutes prior to the addition of 25 ng/ml oncostatin M (OSM) (R&D Systems, Minneapolis, Minn.) to the medium. 6 hours following OSM addition, cells were harvested and levels of firefly and renilla luciferase were measured using the Dual-Glo Luciferase Assay System as described by the manufacturer (Promega).
Inhibition of Stat3 transcription activity. Compounds were tested for their ability to inhibit Stat3 transcription activation activity in cells using a Stat3-luciferase (Stat3-luc) reporter construct. Cells transfected with Stat3-luc were cultured in reduced serum medium prior to addition of indicated compound for 30 minutes. Cells were then stimulated with 25 ng/ml oncostatin M (OSM) for 6 hours followed by detection of Stat3-luc reporter activity. […] AG490, a known inhibitor of the Jak-Stat pathway, was included as a positive control for Stat3 inhibition.

[3] = tested on: Hoechst side population cells; test: Annexin V staining of Hoechst side population cells; conditions: Hoechst side population cells treated with compound
Description: Hoechst Side Population: To identify and isolate side population (SP) and non-SP fractions, SW480 cells were removed from the culture dish with trypsin and EDTA, pelleted by centrifugation, washed with phosphate-buffered saline (PBS), and resuspended at 37° C. in Dulbecco's modified Eagle's medium (DMEM) containing 2% FBS and 1 mM HEPES. The cells were then labeled with Hoechst 33342 (Invitrogen) at a concentration of 5 μg/mL. The labeled cells were incubated for 120 minutes at 37° C., either alone or with 50 μM verapamil (Sigma-Aldrich, St. Louis). After staining, the cells were suspended in Hanks' balanced saline solution (HBSS; Invitrogen) containing 2% FBS and 1 mM HEPES, passed a through 40 μm mesh filter, and maintained at 4° C. until flow cytometry analysis. The Hoechst dye was excited at 350 nm, and its fluorescence was measured at two wavelengths using a 450 DF10 (450/20 nm band-pass filter) and a 675LP (675 nm long-pass edge filter) optical filter. The gating on forward and side scatter was not stringent, and only debris was excluded.
Analysis of Apoptosis: Cells treated with or without compound were harvested at 5 hours post treatment for Annexin-V staining. Collected cells were washed with PBS and resuspended in Annexin-V-FITC containing buffer and stained according to manufactures directions (Roche). Annexin-V positive cells were determined by Flow cytometry. […]

[4] = tested on: HepG2 human liver cancer cells; test: 72 hour MTT, HepG2 cells, single drugs and combinations; conditions: read-out: Compound 401 (% Inhibition)
Description: as §1, §2

`CC(=O)c1cc2c(o1)C(=O)c1ccccc1C2=O` [Compound 401, 2-acetylnaphtho[2,3-b]furan-4,9-dione] was tested, and the inhibition at 0.25 µM ([1]; 401 alone 250 nM) was 36%, the inhibition at 0.5 µM ([1]; 401 alone 500 nM) was 35% and the “Inhibition of OSM-stimulated Stat3 reporter activity (in words)” value ([2]; Stat3-luc, 25 ng/ml OSM for 6 hours) was “inhibits”. The IC50 ([2]; Homo sapiens, compound 30 minutes before 25 ng/ml oncostatin M, read 6 hours later, read-out: IC50 in Stat3-Luc assays) was about 250 nM, the “Mode of cell death, Annexin V staining” value [3] was “dying cells are Annexin V positive; also recorded: apoptotic” and the inhibition at 0.125 µM ([4]; 401 alone 125 nM) was 7%. The inhibition at 0.25 µM ([4]; 401 alone 250 nM) was 43%.

Source: patent publication US10377731B2, “Compositions and methods for cancer treatment” (Boston Biomedical, Inc., priority 2007, dated 2019)
